Source: patent publication US9724312B2, “Agent for the prevention, improvement or treatment of retinal disease” (ROHTO PHARMACEUTICAL CO., LTD., priority 2012, dated 2017)

Tests used:
[1] = tested on: rat models with glaucoma induced by NMDA; assay: Protective effect for retinal ganglion cells against nerve damage by NMDA (thickness of inner plexiform layer); assay type: in vivo
Source text: In recent years the glutamate analogue NMDA (N-methyl-D-aspartate) has been widely reported to be one of causative agents of neurodegenerative diseases including Alzheimer's disease. In the ophthalmic field, NMDA is considered to be involved in optic nerve damage in glaucoma (Brain Research Bulletin, 81 (2010) 349-358). Accordingly, in this experiment rat models with glaucoma induced by NMDA were used to evaluate the neuroprotective effect of GGA.
To Sprague-Dawley (SD) rats, the all-trans form, the 5Z-mono-cis form and teprenone were separately pre-administered by oral administration (Test Example 1), intravitreal administration (Test Example 2) or ocular instillation administration (Test Example 3) and 5 μL of NMDA was administered into the vitreous body to induce nerve damage. For Test Example 2, a marketed therapeutic eye drop for glaucoma, AIPHAGAN (trade name), was intravitreally administered as a positive control once a day for five days. For each of Test Examples, a base not containing GGA or AIPHAGAN was administered as a control in the same manner as described above.
The dosage and regimen of Test Examples 1 to 3 are shown in Table 1 and the constitution of the base used in each tests are shown in Table 2.
Three days after administration of NMDA, the eyeballs were harvested, fixed with half Karnovsky's fixative for 24 hours, embedded in paraffin, thin sectioned and stained with hematoxylin-eosin (HE) to prepare histopathological sections. The histological sections were observed under an optical microscope and the thickness (μm) of the inner plexiform layer (IPL) of the retina was measured. From the thickness of the inner plexiform layer (IPL) of the retina, the neuroprotective effects of the test preparations were evaluated.

[2] = tested on: rat-derived retinal ganglion cells (RGC); assay: Neurite outgrowth inducing effect in culture system of rat-derived retinal ganglion cells; assay type: cell-based; conditions: all-trans form content 3 μM, 48 h; FIG. 2 and 3; n=4, Tukey-Kramer
Source text: The progress of visual impairment in glaucoma is associated with retinal ganglion cell (RGC) death due to blood flow failure occurring near the optic nerve (Folia Pharmacol. Jpn. 128, 255-258 (2006)). Accordingly, a culture system of rat-derived retinal neurons (Current protocols in Neuroscience 3.22.1-3.22.10, October 2010), which is widely used as one of study tools for optic nerve diseases such as a glaucoma, was used to examine the neurite outgrowth inducing effect of GGA.
Four-day-old Wistar rats (Japan SLC, Inc.) were euthanized by cervical dislocation and the eyeballs were harvested. The harvested eyeballs were immersed in 70% ethanol for 10 seconds and transferred to a Hanks' balanced salt solution containing 100 U/mL penicillin and 100 μg/mL streptomycin. Under a stereoscopic microscope, the corneas, irises, crystalline lenses, and vitreous bodies were removed using scissors for surgery and forceps, and the retinal tissue was harvested. The harvested retinal tissue was transferred to a centrifugation tube containing 5 mL of a basal medium for neuronal cells (Neurobasal, Invitrogen) containing 100 U/mL penicillin, 100 μg/mL streptomycin, a neural cell culture supplement (B27™-Supplement, Invitrogen), 1 μM L-cysteine (Kyowa Hakko Bio) and 15 U/mL papain (Sigma Aldrich) and incubated at 37° C. for 30 minutes. […]

CC(=O)CC/C=C(\C)CC/C=C(\C)CC/C=C(\C)CCC=C(C)C [all-trans form, (5E,9E,13E)-6,10,14,18-tetramethyl-5,9,13,17-nonadecatetrae n-2-one]
neuroprotective effect against nerve damage by NMDA compared with base (IPL thickness) ([1]; Test Example 1: oral 800 mg/kg, 2 days, once a day, NMDA 4 mM, FIG. 6, Dunnett): significant neuroprotective effects | neuroprotective effect against nerve damage by NMDA compared with base (IPL thickness) ([1]; Test Example 2: intravitreal 0.05% w/v, 5 days, once a day, NMDA 40 mM, FIG. 7, Tukey-Kramer): significant neuroprotective effects | neuroprotective effect compared with AIPHAGAN Ophthalmic Solution 0.1% ([1]; Test Example 2: intravitreal 0.05% w/v, 5 days, NMDA 40 mM, FIG. 7): significantly superior neuroprotective effect | neuroprotective effect against nerve damage by NMDA compared with base (IPL thickness) ([1]; Test Example 3: ocular instillation 1% w/v, 5 days, 5 times per day, NMDA 4 mM, FIG. 9, t-test): significant neuroprotective effect | neurite inducing effect (mean length of neurites of RGC) compared with GGA 6:4 and base [2]: significant neurite inducing effect
